Here are results for three compounds from patent US11254657B2, “Plinabulin compositions” (priority 2015, dated 2022).

Common to all, as to format: physicochemical
Data set [1] can be described thus: Dissolution in kolliphor (40% wt) and propylene glycol (60% wt). To be noted: mixture of kolliphor (40% wt) and propylene glycol (60% wt). Here is the method:
A batch of plinabulin having a KF analysis of about 3.1% for water content was added to a mixture of kolliphor (40% wt) and propylene glycol (60% wt). […] The batch was reprocessed according to the steps described in FIG. 29 to form the plinabulin monohydrate (Form 1).

Data set [2] can be described thus: Dynamic Vapor Sorption (DVS) test. The protocol: The DSC data were collected using a TA Instruments Q10 DSC. Typically, samples (˜2 mg) were placed in hermetic alodined aluminum sample pans and scanned from 30 to 300° C. at a rate of 10° C./min under a nitrogen purge of 50 mL/min. The TGA data were collected using a TA Instruments TGA Q500. Typically, samples (˜10 mg) were placed in an open, pre-tared aluminum sample pan and scanned from 30 to 300° C. at a rate of 10° C./min using a nitrogen purge at 60 mL/min. The X-ray powder diffraction patterns were obtained using a Bruker D8 Advance equipped with a Cu Ku radiation source ([…]), a 9-position sample holder and a LYNXEYE Super Speed Detector. Typically, the duration of each scan was 180 seconds and the 2θ range was 4 to 40°. Samples were placed on zero-background, silicon plate holders. Samples were analyzed using an Aquadyne DVS-2 gravimetric water sorption analyzer. The relative humidity was adjusted between 2-95% and the weight of sample was continuously monitored and recorded.
A DVS experiment was run on the plinabulin monohydrate (Form 1). The sample gained ˜0.1% mass at 95% RH which was lost on drying to 0% RH without hysteresis. […] The XRPD pattern of the pre-DVS sample (Form 1 plinabulin monohydrate) overlays with the XRPD patterns of the post-DVS sample (Form 1 plinabulin monohydrate).

The nature of data set [3]: Gravimetric solubility measurement in solvents. To be noted: for solubility at 3 days: thermodynamic from solid, slurried 3 days. Here is the method:
A plinabulin compound was slurried in 15 different solvents/solvent mixtures as shown in Table 9 at 15° C. and 45° C. for 3 days for gravimetric solubility measurement. About 70 mg of solid was added to a vial for each experiment followed by addition of 0.7 mL of the respective solvents. Next, the slurry was centrifuged and the supernatant was added to pre-weighed vials and evaporated to dryness under vacuum. The vials with remaining solids were weighed again to calculate the solubility. […]

A short description of data set [4]: Drying study in vacuum oven at 50° C. As to conditions: overnight and over the weekend. The protocol: A sample of plinabulin monohydrate (Form 1) was placed in a vacuum oven at 50° C. overnight and over the weekend.
A short description of data set [5]: High humidity exposure stability. To be noted: >95% RH for 13 days. From the text:
Form 1 was also stable under various humidity conditions. On the other hand, the crystalline forms converted to Form I monohydrate when exposed to moisture.

The nature of data set [6]: Karl Fischer moisture level on extended drying and humid exposure. Here is the method: Analysis by KF after drying at 45° C. under vacuum for an additional 70 hours indicated the moisture level had decreased to 4.1%. […] This sample was placed in a glove bag in an open container with an open container of water and the moisture level monitored. After 4 hours the moisture level was measured as 5.0%. After 18.5 hours the moisture level was measured as 4.8% and after 51 hours the KF result was 4.9%.
A sample of plinabulin compound (4.92 g) was stirred in ethanol (147.6 g) and heated to reflux (fully soluble at 75° C.). The solution was then allowed to cool and monitored for precipitation. A precipitate was observed when the solution was at 48° C. The mixture was re-heated to reflux providing a clear yellow solution. To the hot solution was added 295 g of water (approximately twice the mass of ethanol) allowing the mixture to cool during the addition. A precipitate was observed after charging approximately 150 mL of water with the temperature at 48° C. This solution was allowed to cool to room temperature. The solids were filtered and washed three times with 20 g of water. The solid was dried at 40-45° C. for 2.5 days to give 4.82 g, 98.0% recovery. […] Analysis by KF after drying at 45° C. under vacuum for an additional 70 hours indicated the moisture level had decreased to 4.4%. The XRPD of this sample indicates it was essentially unchanged, a mixture of Forms 1 and 3 with additional peaks (at around 12.26°, 15.19° and 28.79° 2θ degrees). This sample was placed in a glove bag in an open container with an open container of water and the moisture level monitored. After 4 hours the moisture level was measured as 5.0%. After 18.5 hours the moisture level was measured as 4.9% and after 51 hours the KF result was 5.1%.

The mark [7] stands for this setting: listed as plinabulin monohydrate (Form 1).

“Also recorded” adds a separate entry of the source. Read-outs that look alike come from different tables or passages of the source. A value given as a limit tells only on which side of the number the result lay.

`CC(C)(C)c1[nH]cnc1/C=c1\[nH]c(=O)/c(=C/c2ccccc2)[nH]c1=O` [Form 3]: the “dissolution in diluent mixture” value in data set [1] (listed as anhydrous plinabulin (Form 3)) is recorded as “insoluble particles”. In data set [2], the “post-DVS sample versus pre-DVS sample by XRPD” value is on record as “differed from the pre-DVS sample”. The “mass lost in DVS” value in data set [2] (at 90% RH) was “about 0.2%”.
For `CC(C)(C)c1[nH]cnc1/C=c1\[nH]c(=O)/c(=C/c2ccccc2)[nH]c1=O` [plinabulin compound, (3Z,6Z)-3-Benzylidene-6-{[5-(2-methyl-2-propanyl)-1H-imidazol-4-yl]methylene}-2,5-piperazinedione], the “solubility (in words)” value in data set [3] (THF) was “highly soluble”.
On to `CC(C)(C)c1[nH]cnc1/C=c1\[nH]c(=O)/c(=C/c2ccccc2)[nH]c1=O` [plinabulin monohydrate, (3Z,6Z)-3-Benzylidene-6-{[5-(2-methyl-2-propanyl)-1H-imidazol-4-yl]methylene}-2,5-piperazinedione], for which the “dissolution in diluent mixture” value in data set [1] (setting [7]) is reported as “dissolved completely”. For the same compound, the “change in weight during drying” value in data set [4] is listed as “no change in weight”. The stability on drying result in data set [4] (setting [7]) is “stable to drying; also recorded: remained stable”. The solubility at 3 days in data set [3] (organic solvent or mixture, ACN, 15° C., read-out: Solubility at 15° C.) amounted to 3000 µg/mL; in data set [3] (organic solvent or mixture, ACN, 45° C., read-out: Solubility at 45° C.) it was 7000 µg/mL; in data set [3] (organic solvent or mixture, Acetone:water (95:5), 15° C., read-out: Solubility at 15° C.), 6000 µg/mL; in data set [3] (organic solvent or mixture, Acetone:water (95:5), 45° C., read-out: Solubility at 45° C.), 16000 µg/mL; in data set [3] (organic solvent or mixture, Acetone, 15° C., read-out: Solubility at 15° C.), 11000 µg/mL; in data set [3] (organic solvent or mixture, Acetone, 45° C., read-out: Solubility at 45° C.) it was 20000 µg/mL. Besides, the solubility at 3 days was found to be 2000 µg/mL in data set [3] (organic solvent or mixture, DCM, 15° C., read-out: Solubility at 15° C.); 3000 µg/mL in data set [3] (organic solvent or mixture, EtOAc, 15° C., read-out: Solubility at 15° C.); 8000 µg/mL in data set [3] (organic solvent or mixture, EtOAc, 45° C., read-out: Solubility at 45° C.); 4000 µg/mL in data set [3] (organic solvent or mixture, EtOH:water (95:5), 15° C., read-out: Solubility at 15° C.); 13000 µg/mL in data set [3] (organic solvent or mixture, EtOH:water (95:5), 45° C., read-out: Solubility at 45° C.); 5000 µg/mL in data set [3] (organic solvent or mixture, EtOH, 15° C., read-out: Solubility at 15° C.). The solubility at 3 days in data set [3] (organic solvent or mixture, EtOH, 45° C., read-out: Solubility at 45° C.) was 13000 µg/mL; in data set [3] (organic solvent or mixture, Heptane, 15° C., read-out: Solubility at 15° C.), less than 1000 µg/mL; in data set [3] (organic solvent or mixture, Heptane, 45° C., read-out: Solubility at 45° C.) it was 3000 µg/mL; in data set [3] (organic solvent or mixture, IPA, 15° C., read-out: Solubility at 15° C.) it was 1000 µg/mL; in data set [3] (organic solvent or mixture, IPA, 45° C., read-out: Solubility at 45° C.) it was 7000 µg/mL; in data set [3] (organic solvent or mixture, MEK, 15° C., read-out: Solubility at 15° C.), 11000 µg/mL. The solubility at 3 days in data set [3] (organic solvent or mixture, MEK, 45° C., read-out: Solubility at 45° C.) was 23000 µg/mL; in data set [3] (organic solvent or mixture, MTBE, 15° C., read-out: Solubility at 15° C.), less than 1000 µg/mL; in data set [3] (organic solvent or mixture, MTBE, 45° C., read-out: Solubility at 45° C.), 5000 µg/mL; in data set [3] (organic solvent or mixture, MeOH, 15° C., read-out: Solubility at 15° C.), 5000 µg/mL; in data set [3] (organic solvent or mixture, MeOH, 45° C., read-out: Solubility at 45° C.) it was 13000 µg/mL; in data set [3] (organic solvent or mixture, THF, 15° C., read-out: Solubility at 15° C.), 40000 µg/mL. In addition, the solubility at 3 days in data set [3] (organic solvent or mixture, THF, 45° C., read-out: Solubility at 45° C.) is 96000 µg/mL; in data set [3] (organic solvent or mixture, Toluene, 15° C., read-out: Solubility at 15° C.), 1000 µg/mL; in data set [3] (organic solvent or mixture, Toluene, 45° C., read-out: Solubility at 45° C.) it was 7000 µg/mL; in data set [3] (Water, 15° C., read-out: Solubility at 15° C.) it was less than 1000 µg/mL; in data set [3] (Water, 45° C., read-out: Solubility at 45° C.), less than 1000 µg/mL. Besides, the “stability in high humidity environment” value in data set [5] (listed as form 1) is given as “no change in solid form”; in data set [5] (setting [7]) it was “no change in solid form; also recorded: remained stable with no change in mass”. Also, the “moisture level (KF)” value in data set [6] (after drying at 45° C. under vacuum for an additional 70 hours) was determined as 4.1%; in data set [6] (dried sample in glove bag with open container of water, after 4 hours) it was 5.0%; in data set [6] (dried sample in glove bag with open container of water, after 18.5 hours), 4.8%; in data set [6] (dried sample in glove bag with open container of water, after 51 hours), 4.9%. Moreover, in data set [2], the “stability during the DVS and drying tests (in words)” value is reported as “remained stable”. Besides, in data set [2] (at 95% RH), the “mass gained in DVS” value was approximately 0.1%. In data set [2] (setting [7]), the “post-DVS sample versus pre-DVS sample by XRPD” value is “no transformation had taken place”.

By solubility is commonly meant the dissolved amount per volume that the medium holds.
